# According to patent US20160193148A1, “LIPOSOMAL FORMULATIONS FOR THE TREATMENT OF BACTERIAL INFECTIONS” (UNIVERSITY OF GEORGIA RESEARCH FOUNDATION, INC., priority 2013, published 2016):
# Marks after values point to notes of the source that are not given here.
# Key:
# [1] = Repeated dose IV LG or FG: indices of renal injury and tolerability in foals
# Experimental: Subsequently, twelve healthy foals were administered either LG or FG at 6.6 mg/kg IV q 24 hours for 7 doses, and urinary protein, creatinine, γ-glutamyltransferase, and electrolytes were measured on days 0, 3 and 7 to quantify renal injury. Concentrations of gentamicin were measured using HPLC-MS.
# Each dose was diluted in 250 ml of sterile 0.9% saline and administered over 15 minutes via an indwelling 14 G catheter placed in a jugular vein. Blood samples for plasma separation and measurement of gentamicin concentrations were obtained on day 1 and on day 7 at the times listed for study 1. Bronchoalveolar lavage fluid was collected 2, 6 and 24 hours after the end of infusion on day 7. Urine was collected the day prior to the first drug dose (day 0) and again 2 hours after the end of the infusion on days 3 and 7. Foals were sedated with xylazine hydrochloride (1.1 mg/kg bwt IV) and anesthetized with ketamine (2.2 mg/kg bwt IV) to allow passage of a urinary catheter using aseptic techniques. Urinalysis was performed and urine and concurrently obtained plasma samples were submitted for measurement of creatinine, γ-glutamyltransferase (GGT), protein, calcium, chloride, magnesium, sodium, and potassium concentrations. Fractional excretion of electrolytes, urinary GGT to creatinine ratio, and urinary protein to creatinine ratios were calculated. Prior to analysis for gentamicin concentration by LC-MS, urine and plasma samples were centrifuged at 400×g for 10 minutes and the supernatant was frozen at −80° C. until assayed.
# Normality and equality of variance of the data were assessed with use of the Shapiro-Wilk and Levene tests, respectively. Data that were not normally distributed were log or rank transformed. The paired t test or the Wilcoxon rank sum test was used to compare IV pharmacokinetic variables between LF and FG. The effects of drug (LG vs FG), administration route (IV vs nebulized) and the interactions between drug and administration route on PELF and BAL cell pharmacokinetic variables were assessed using a two-way ANOVA for repeated measurement. For study 2, the effects of drug (LG vs FG), time (day 0, day 3, and day 7), and the interactions between drug and time on renal indices were assessed using a two-way ANOVA with one factor repetition (time). When warranted, multiple pairwise comparisons were done by use of the Holm-Sidak test. The paired t test or the Wilcoxon rank sum test was used to compare IV pharmacokinetic variables obtained on day 1 to those obtained on day 7. Significance was set at P<0.05.
# R. equi isolates = conditions: Riesenberg et al. 2013; cited from earlier work
# [2] = repeated daily IV dosing, 6 foals per group
substance,measurement,setting,value
gentamicin sulfate [Free Gentamicin],FE Ca^2+,[1]; Day 0 (before first dose),3.5 ± 3.4%
same,FE Cl^−,[1]; Day 0 (before first dose),0.60 ± 0.29%
same,FE K^+,[1]; Day 0 (before first dose),10.1 ± 4.9%
same,FE Mg^2+,[1]; Day 0 (before first dose),13.9 ± 8.91%
same,FE Na^+,[1]; Day 0 (before first dose),0.28 ± 0.4^a %
same,Plasma creatinine,[1]; Day 0 (before first dose),116.39 ± 20.48 µmol/L
same,USG (urine specific gravity),[1]; Day 0 (before first dose),1.003 ± 0.002
same,Urine pH,[1]; Day 0 (before first dose),7.2 ± 0.7
same,FE Ca^2+,[1]; Day 3,1.9 ± 1.1%
same,FE Cl^−,[1]; Day 3,0.6 ± 0.2%
same,FE K^+,[1]; Day 3,18.4 ± 12.2%
same,FE Mg^2+,[1]; Day 3,11.2 ± 6.5%
same,FE Na^+,[1]; Day 3,0.12 ± 0.05^a %
same,Plasma creatinine,[1]; Day 3,120.81 ± 21.41 µmol/L
same,USG (urine specific gravity),[1]; Day 3,1.008 ± 0.008
same,Urine pH,[1]; Day 3,6.3 ± 0.8
same,difference from baseline (day 0) in urine pH,[1]; Day 3,−0.83*
same,FE Ca^2+,[1]; Day 7,1.6 ± 1.4%
same,FE Cl^−,[1]; Day 7,0.78 ± 0.19%
same,FE K^+,[1]; Day 7,16.8 ± 10.6%
same,FE Mg^2+,[1]; Day 7,9.8 ± 4.7%
same,FE Na^+,[1]; Day 7,0.27 ± 0.12^b %
same,Plasma creatinine,[1]; Day 7,117.87 ± 24.79 µmol/L
same,USG (urine specific gravity),[1]; Day 7,1.002 ± 0.001
same,Urine pH,[1]; Day 7,6.3 ± 0.3
same,difference from baseline (day 0) in urine pH,[1]; Day 7,−1.67*
same,casts on urine sediment analysis,"[1]; day 7, 6 foals per group",One foal
same,mild self-limiting diarrhea during treatment,[1]; [2],One foal
same,thrombophlebitis,[1]; [2],2 foals
same,MIC that inhibits at least 90% (MIC90) of R. equi isolates,R. equi isolates,0.5 µg/mL
